In brackets after ≈: the same amount, converted by molar mass. Like-named read-outs stand apart in the source and are kept apart here.
Experiments:
[1] = Caco-2 bidirectional permeability assay; type: in vitro ADME, human; settings: human, Caco-2
Description: The Caco-2 bidirectional permeability assay was conducted as described in previous reports[29],[30],[41],[42]. The Caco-2 cell line is similar to human enterocytes and expresses P-glycoprotein and other relevant metabolic enzymes that affect absorption of orally-administered xenobiotics across the intestinal mucosa[34],[43],[44]. Caco-2 cells were grown in tissue culture flasks, trypsinized (by rinsing cells with phosphate-buffered saline and then treating with trypsin-EDTA for 5–10 minutes at 37 °C with 5% CO2 until cells detached), suspended in Dulbecco’s Modified Eagle Medium with 10% fetal bovine serum, 1% nonessential amino acids and penicillin-streptomycin, and then seeded onto wells of a Millipore 96-well Caco-2 plate. Cells were cultured at 37 °C with 5% CO2 until confluent (approximately three weeks) and media was changed at relevant time points. For Apical to Basolateral (A → B) permeability, the test article was added to the apical (A) compartment and the amount of permeation (Papp, as calculated below) to the basolateral (B) compartment was determined; for Basolateral to Apical (B → A) permeability, the test article was added to the B compartment and the amount of permeation to the A compartment was determined. […] Caco-2 cells were incubated with these buffers for two hours, and the receiver side buffer was removed for analysis by LC/MS/MS. To verify the tight junctions and integrity of Caco-2 cell monolayers, aliquots of the cell buffers were analyzed by fluorescence (Lucifer yellow transport ≤ 2%). Any deviations from control values are reported. Data are expressed as permeability (Papp) = (dQ/dt)/(C0A) where dQ/dt is the rate of permeation, C0 is the initial concentration of test agent, and A is the area of the monolayer.

[2] = tested on: E. faecalis; assay: Broth microdilution MIC against E. faecalis strains; type: cell-based; settings: Enterococcus faecalis, read-out: Minimum inhibitory concentration
[3] = tested on: vancomycin-resistant and vancomycin-susceptible strains of Enterococcus; assay: Broth microdilution MIC against Enterococcus strains (E. faecalis and E. faecium, summary in text); type: cell-based; settings: all E. faecalis and E. faecium strains tested, vancomycin-resistant and -sensitive
[4] = tested on: Clostridium difficile; assay: Broth microdilution MIC against Clostridium difficile strains; type: cell-based; settings: Clostridioides difficile
Description: The broth microdilution assay was utilized following the Clinical and Laboratory Standards Institute (CLSI) guidelines with slight modifications. Briefly, C. difficile strains were grown on anaerobic blood agar plates (Becton Dickinson, BD) and suspended in brain heart infusion supplemented broth (Brain heart infusion medium, BD, supplemented with yeast extract, L-cysteine, Vitamin K1 and Hemin, Sigma) to achieve a bacterial concentration of ~10^5 CFU/ml. The bacterial suspension was seeded in 96-well plates containing drugs/compounds, in duplicate, at the required concentration. Plates were then incubated at 37 °C anaerobically for 48 hours. MICs reported are the lowest concentration of each agent that inhibited the visual growth of bacteria.

[5] = tested on: human ileocecal colorectal adenocarcinoma cell line (HRT-18); assay: Cytotoxicity, MTS assay, HRT-18 cells; type: cell-based; settings: 32 µg mL^−1, 2 hours
Description: Briefly, ~2 × 10^4 cells suspended in 100 µL of RPMI-1640 supplemented with 10% horse serum were seeded in a 96-well plate and incubated at 37 °C with 5% CO2. The cells were cultured for 24 hours until reaching ~90% confluency. The cells were further incubated with the aforementioned concentrations of the compounds for 2 hours. Afterwards, culture media were discarded and the cells in each well were washed with PBS and 100 µL of cell culture media were added prior to addition of the assay reagent MTS 3-(4,5-dimethylthiazol-2-yl)-5-(3-carboxymethoxyphenyl)-2-(4-sulfophenyl)-2H-tetrazolium) (Promega). The plates were incubated for 4 hours at 37 °C in a humidified 5% CO2 atmosphere. The absorbance was recorded at 490 nm and the corrected absorbance readings (actual absorbance readings for each treatment subtracted from background absorbance) were taken using a kinetic ELISA microplate reader (SpectraMax i3x, Molecular Devices, Sunnyvale, CA, USA). The quantity of viable cells after treatment with each compound was expressed as a percentage of the control, DMSO. Asterisk (*) denotes a significant difference from the DMSO-treated cells using 2-way analysis of variance (ANOVA) followed by Dunnett’s pairwise comparison.

[6] = tested on: E. faecium; assay: Broth microdilution MIC against E. faecium strains; type: cell-based; settings: Enterococcus faecium, read-out: Minimum inhibitory concentration
[7] = C. difficile Isolate 1 (NR-13427), read-out: Minimum inhibitory concentration
[8] = C. difficile Isolate 2 (NR-13428), read-out: Minimum inhibitory concentration
[9] = C. difficile Isolate 4 (NR-13430), read-out: Minimum inhibitory concentration
[10] = C. difficile Isolate 5 (NR-13431), read-out: Minimum inhibitory concentration
[11] = C. difficile Isolate 6 (NR-13432), read-out: Minimum inhibitory concentration
[12] = C. difficile Isolate 9 (NR-13435), read-out: Minimum inhibitory concentration
[13] = C. difficile Isolate 10 (NR-13436), read-out: Minimum inhibitory concentration
[14] = C. difficile P2 (NR-32883), read-out: Minimum inhibitory concentration
[15] = C. difficile P4 (NR-32889), read-out: Minimum inhibitory concentration
[16] = C. difficile P8 (NR-32888), read-out: Minimum inhibitory concentration
[17] = C. difficile P13 (NR-32891), read-out: Minimum inhibitory concentration
[18] = C. difficile P15 (NR-32892), read-out: Minimum inhibitory concentration
[19] = C. difficile P20 (NR-32896), read-out: Minimum inhibitory concentration
[20] = C. difficile P21 (NR-32897), read-out: Minimum inhibitory concentration
[21] = C. difficile P29 (NR-32903), read-out: Minimum inhibitory concentration
[22] = C. difficile strains P8, P13 and Isolate 10

SMILES | MIC [4, 7] | MIC [4, 8] | MIC [4, 9] | MIC [4, 10] | MIC [4, 11] | MIC [4, 12] | MIC [4, 13] | MIC [4, 14] | MIC [4, 15] | MIC [4, 16] | MIC [4, 17] | MIC [4, 18] | MIC [4, 19] | MIC [4, 20] | MIC [4, 21] | MIC [4, 22] | also measured
CNC(=C[N+](=O)[O-])NCCSCc1ccc(CN(C)C)o1 [Ranitidine] |  |  |  |  |  |  |  |  |  |  |  |  |  |  |  |  | efflux ratio at 2 h ([1]; Re = (Papp B→A)/(Papp A→B)): 5.18; Papp A→B at 2 h ([1]; apical (pH 6.5) to basolateral (pH 7.4), two hours): 0.186 ×10⁻⁶ cm/s; Papp B→A at 2 h ([1]; basolateral to apical, two hours): 0.942 ×10⁻⁶ cm/s
CCCCCCCCN(Cc1cccc2ccccc12)C(=O)[C@@H](N)CCCCN [NCK-8] | 8 µg/mL (≈ 20.1 µM) | 8 µg/mL (≈ 20.1 µM) | 8 µg/mL (≈ 20.1 µM) | 2 µg/mL (≈ 5.03 µM) | 8 µg/mL (≈ 20.1 µM) | 4 µg/mL (≈ 10.1 µM) | 8 µg/mL (≈ 20.1 µM) | 4 µg/mL (≈ 10.1 µM) | 8 µg/mL (≈ 20.1 µM) | 8 µg/mL (≈ 20.1 µM) | 8 µg/mL (≈ 20.1 µM) | 8 µg/mL (≈ 20.1 µM) | 8 µg/mL (≈ 20.1 µM) | 4 µg/mL (≈ 10.1 µM) | 8 µg/mL (≈ 20.1 µM) |  | MIC ([2]; E. faecalis B3196): 16 µg/mL (≈ 40.2 µM); MIC ([2]; E. faecalis B3286): 32 µg/mL (≈ 80.5 µM); MIC ([2]; E. faecalis B3336): 16 µg/mL (≈ 40.2 µM); MIC ([2]; E. faecalis SF24397): 16 µg/mL (≈ 40.2 µM); MIC ([2]; E. faecalis SF28073 (vancomycin-resistant)): 16 µg/mL (≈ 40.2 µM); MIC [3]: 8 to 32 µg/mL (≈ 20.1 to 80.5 µM); MIC ([4]; across all tested strains of C. difficile): 2 to 8 µg/mL (≈ 5.03 to 20.1 µM); toxicity to HRT-18 cells [5]: survived; MIC ([6]; E. faecium E417 (vancomycin-resistant)): 8 µg/mL (≈ 20.1 µM); MIC ([6]; E. faecium E1071): 16 µg/mL (≈ 40.2 µM); MIC ([6]; E. faecium UAA714): 16 µg/mL (≈ 40.2 µM)
Cc1ncc([N+](=O)[O-])n1CCO [Metronidazole, reference compound] | 0.25 µg/mL (≈ 1.46 µM) | 0.0625 µg/mL (≈ 0.365 µM) | 0.5 µg/mL (≈ 2.92 µM) | 0.25 µg/mL (≈ 1.46 µM) | 0.125 µg/mL (≈ 0.73 µM) | 0.0625 µg/mL (≈ 0.365 µM) | 0.125 µg/mL (≈ 0.73 µM) | 0.0625 µg/mL (≈ 0.365 µM) | 0.125 µg/mL (≈ 0.73 µM) | 0.125 µg/mL (≈ 0.73 µM) | 0.25 µg/mL (≈ 1.46 µM) | 0.0625 µg/mL (≈ 0.365 µM) | 0.25 µg/mL (≈ 1.46 µM) | 0.125 µg/mL (≈ 0.73 µM) | 0.0625 µg/mL (≈ 0.365 µM) | < 0.25 µg/mL | 
CN[C@H](CC(C)C)C(=O)N[C@H]1C(=O)N[C@@H](CC(N)=O)C(=O)N[C@H]2C(=O)N[C@H]3C(=O)N[C@H](C(=O)N[C@H](C(=O)O)c4cc(O)cc(O)c4-c4cc3ccc4O)[C@H](O)c3ccc(c(Cl)c3)Oc3cc2cc(c3O[C@@H]2O[C@H](CO)[C@@H](O)[C@H](O)[C@H]2O[C@H]2C[C@](C)(N)[C@H](O)[C@H](C)O2)Oc2ccc(cc2Cl)[C@H]1O [Vancomycin, reference compound] |  |  |  |  |  |  |  |  |  |  |  |  |  |  |  | 0.5 µg/mL (≈ 0.345 µM) | MIC [2]: 1 µg/mL (≈ 0.69 µM); MIC ([4]; read-out: Minimum inhibitory concentration, C. difficile Isolate 1 (NR-13427)): 1 µg/mL (≈ 0.69 µM); MIC ([4]; read-out: Minimum inhibitory concentration, C. difficile Isolate 2 (NR-13428)): 1 µg/mL (≈ 0.69 µM); MIC ([4]; read-out: Minimum inhibitory concentration, C. difficile Isolate 4 (NR-13430)): 0.5 µg/mL (≈ 0.345 µM); MIC ([4]; read-out: Minimum inhibitory concentration, C. difficile Isolate 5 (NR-13431)): 0.5 µg/mL (≈ 0.345 µM); MIC ([4]; read-out: Minimum inhibitory concentration, C. difficile Isolate 6 (NR-13432)): 0.5 µg/mL (≈ 0.345 µM); MIC ([4]; read-out: Minimum inhibitory concentration, C. difficile Isolate 9 (NR-13435)): 0.5 µg/mL (≈ 0.345 µM); MIC ([4]; read-out: Minimum inhibitory concentration, C. difficile Isolate 10 (NR-13436)): 0.5 µg/mL (≈ 0.345 µM); MIC ([4]; read-out: Minimum inhibitory concentration, C. difficile P2 (NR-32883)): 0.5 µg/mL (≈ 0.345 µM); MIC ([4]; read-out: Minimum inhibitory concentration, C. difficile P4 (NR-32889)): 2 µg/mL (≈ 1.38 µM); MIC ([4]; read-out: Minimum inhibitory concentration, C. difficile P8 (NR-32888)): 0.5 µg/mL (≈ 0.345 µM); MIC ([4]; read-out: Minimum inhibitory concentration, C. difficile P13 (NR-32891)): 0.5 µg/mL (≈ 0.345 µM); MIC ([4]; read-out: Minimum inhibitory concentration, C. difficile P15 (NR-32892)): 0.5 µg/mL (≈ 0.345 µM); MIC ([4]; read-out: Minimum inhibitory concentration, C. difficile P20 (NR-32896)): 1 µg/mL (≈ 0.69 µM); MIC ([4]; read-out: Minimum inhibitory concentration, C. difficile P21 (NR-32897)): 0.5 µg/mL (≈ 0.345 µM); MIC ([4]; read-out: Minimum inhibitory concentration, C. difficile P29 (NR-32903)): 0.5 µg/mL (≈ 0.345 µM); MIC ([4]; the rest of the C. difficile strains): 0.5 to 1 µg/mL (≈ 0.345 to 0.69 µM); MIC [6]: > 128 µg/mL
